Assay results: PubChem BioAssay (NCI)
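Following 48 hours of exposure in 96-well plates, responses at five concentrations were used to interpolate endpoints linearly. The concentration for 50% growth inhibition is given as GI50. TGI: total growth inhibition.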

Columns and labels:
Test in all cases: NCI-60 cell line screen, 48 h
HOP-92 NSCLC = test system: HOP-92 NSCLC
PC-3 prostate = test system: PC-3 prostate
HCT-15 colon = test system: HCT-15 colon
NCI-H226 lung = test system: NCI-H226 lung
EKVX NSCLC = test system: EKVX NSCLC
IGROV1 ovarian = test system: IGROV1 ovarian
HT29 colon = test system: HT29 colon
A498 renal = test system: A498 renal
UACC-62 melanoma = test system: UACC-62 melanoma
RPMI-8226 leukemia = test system: RPMI-8226 leukemia
OVCAR-4 ovarian = test system: OVCAR-4 ovarian
SK-OV-3 ovarian = test system: SK-OV-3 ovarian
ACHN renal = test system: ACHN renal
MDA-MB-231 breast = test system: MDA-MB-231 breast
NCI-H460 lung = test system: NCI-H460 lung
BT-549 breast = test system: BT-549 breast
OVCAR-8 ovarian = test system: OVCAR-8 ovarian
MCF7 breast = test system: MCF7 breast
RXF 393 renal = test system: RXF 393 renal
M14 melanoma = test system: M14 melanoma
NCI/ADR-RES ovarian = test system: NCI/ADR-RES ovarian
OVCAR-3 ovarian = test system: OVCAR-3 ovarian
KM12 colon = test system: KM12 colon
SW-620 colon = test system: SW-620 colon
NCI-H522 lung = test system: NCI-H522 lung
LOX IMVI melanoma = test system: LOX IMVI melanoma
MALME-3M melanoma = test system: MALME-3M melanoma
SK-MEL-2 melanoma = test system: SK-MEL-2 melanoma
MOLT-4 leukemia = test system: MOLT-4 leukemia
SNB-75 CNS = test system: SNB-75 CNS
786-0 renal = test system: 786-0 renal
DU-145 prostate = test system: DU-145 prostate
OVCAR-5 ovarian = test system: OVCAR-5 ovarian
SN12C renal = test system: SN12C renal
SK-MEL-28 melanoma = test system: SK-MEL-28 melanoma
T-47D breast = test system: T-47D breast
SK-MEL-5 melanoma = test system: SK-MEL-5 melanoma
CCRF-CEM leukemia = test system: CCRF-CEM leukemia
CAKI-1 renal = test system: CAKI-1 renal
HL-60(TB) leukemia = test system: HL-60(TB) leukemia
U251 CNS = test system: U251 CNS
COLO 205 colon = test system: COLO 205 colon
UO-31 renal = test system: UO-31 renal
TK-10 renal = test system: TK-10 renal
SF-268 CNS = test system: SF-268 CNS
SR leukemia = test system: SR leukemia
SF-539 CNS = test system: SF-539 CNS
MDA-MB-435 = test system: MDA-MB-435
SNB-19 CNS = test system: SNB-19 CNS
NCI-H23 lung = test system: NCI-H23 lung
HCC-2998 colon = test system: HCC-2998 colon
HS 578T breast = test system: HS 578T breast
HOP-62 NSCLC = test system: HOP-62 NSCLC
A549 NSCLC = test system: A549 NSCLC
UACC-257 melanoma = test system: UACC-257 melanoma
HCT-116 colon = test system: HCT-116 colon
K-562 leukemia = test system: K-562 leukemia
SF-295 CNS = test system: SF-295 CNS

Molecule `COc1ccc2cc1Oc1ccc(cc1)C[C@H]1c3c(cc4c(c3Oc3cc5c(cc3OC)CCN(C)[C@@H]5C2)OCO4)CCN1C` has a GI50 (HOP-92 NSCLC) of 1.3 µM, a TGI (HOP-92 NSCLC) of 11.8 µM and a GI50 (PC-3 prostate) of 2.08 µM. For the same molecule, the TGI (PC-3 prostate) was 11.4 µM, the GI50 (HCT-15 colon) was 2.02 µM and the TGI (HCT-15 colon) was 8.34 µM. It also gave a GI50 (NCI-H226 lung) of 4.1 µM, a TGI (NCI-H226 lung) of 11.5 µM and a GI50 (EKVX NSCLC) of 8.47 µM. It also gave a TGI (EKVX NSCLC) of 18 µM, a GI50 (IGROV1 ovarian) of 5.42 µM and a TGI (IGROV1 ovarian) of 12.9 µM. For the same molecule, the GI50 (HT29 colon) was 0.237 µM, the TGI (HT29 colon) was 2.56 µM and the GI50 (A498 renal) was 5.93 µM. It also gave a TGI (A498 renal) of 12.1 µM, a GI50 (UACC-62 melanoma) of 1.81 µM and a TGI (UACC-62 melanoma) of 6.16 µM. It also gave a GI50 (RPMI-8226 leukemia) of 1.56 µM, a TGI (RPMI-8226 leukemia) of 8.7 µM and a GI50 (OVCAR-4 ovarian) of 2.52 µM. It also gave a TGI (OVCAR-4 ovarian) of 12.3 µM, a GI50 (SK-OV-3 ovarian) of 6.23 µM and a TGI (SK-OV-3 ovarian) of 12.5 µM. It also gave a GI50 (ACHN renal) of 4.59 µM, a TGI (ACHN renal) of 10.6 µM and a GI50 (MDA-MB-231 breast) of 1.1 µM. It also gave a TGI (MDA-MB-231 breast) of 2.87 µM, a GI50 (NCI-H460 lung) of 2.82 µM and a TGI (NCI-H460 lung) of 9.03 µM. The GI50 (BT-549 breast) was 5.12 µM, the TGI (BT-549 breast) was 11.8 µM and the GI50 (OVCAR-8 ovarian) was 2.36 µM. It also gave a TGI (OVCAR-8 ovarian) of 9.9 µM, a GI50 (MCF7 breast) of 1.85 µM and a TGI (MCF7 breast) of 7.4 µM. The GI50 (RXF 393 renal) was 0.628 µM, the TGI (RXF 393 renal) was 1.69 µM and the GI50 (M14 melanoma) was 0.903 µM. For the same molecule, the TGI (M14 melanoma) was 1.76 µM, the GI50 (NCI/ADR-RES ovarian) was 6.02 µM and the TGI (NCI/ADR-RES ovarian) was 15.9 µM. It also gave a GI50 (OVCAR-3 ovarian) of 5.38 µM, a TGI (OVCAR-3 ovarian) of 15 µM and a GI50 (KM12 colon) of 4.83 µM. The TGI (KM12 colon) was 13.2 µM, the GI50 (SW-620 colon) was 2.11 µM and the TGI (SW-620 colon) was 8.47 µM. It also gave a GI50 (NCI-H522 lung) of 1.43 µM, a TGI (NCI-H522 lung) of 6.77 µM and a GI50 (LOX IMVI melanoma) of 0.702 µM. For the same molecule, the TGI (LOX IMVI melanoma) was 1.52 µM, the GI50 (MALME-3M melanoma) was 1.18 µM and the TGI (MALME-3M melanoma) was 3.01 µM. It also gave a GI50 (SK-MEL-2 melanoma) of 4.13 µM, a TGI (SK-MEL-2 melanoma) of 11.2 µM and a GI50 (MOLT-4 leukemia) of 3.92 µM. The TGI (MOLT-4 leukemia) was 12.9 µM, the GI50 (SNB-75 CNS) was 5.27 µM and the TGI (SNB-75 CNS) was 11.4 µM. The GI50 (786-0 renal) was 5.57 µM, the TGI (786-0 renal) was 12 µM and the GI50 (DU-145 prostate) was 6.23 µM. For the same molecule, the TGI (DU-145 prostate) was 17.8 µM, the GI50 (OVCAR-5 ovarian) was 6.65 µM and the TGI (OVCAR-5 ovarian) was 13.5 µM. The GI50 (SN12C renal) was 3.55 µM, the TGI (SN12C renal) was 10.6 µM and the GI50 (SK-MEL-28 melanoma) was 0.911 µM. The TGI (SK-MEL-28 melanoma) was 1.86 µM, the GI50 (T-47D breast) was 0.988 µM and the TGI (T-47D breast) was 2.05 µM. The GI50 (SK-MEL-5 melanoma) was 0.763 µM, the TGI (SK-MEL-5 melanoma) was 1.43 µM and the GI50 (CCRF-CEM leukemia) was 1.53 µM. It also gave a TGI (CCRF-CEM leukemia) of 7.77 µM, a GI50 (CAKI-1 renal) of 5.13 µM and a TGI (CAKI-1 renal) of 11.9 µM. For the same molecule, the GI50 (HL-60(TB) leukemia) was 3.54 µM, the TGI (HL-60(TB) leukemia) was 11.9 µM and the GI50 (U251 CNS) was 0.832 µM. For the same molecule, the TGI (U251 CNS) was 5.52 µM, the GI50 (COLO 205 colon) was 0.356 µM and the TGI (COLO 205 colon) was 1.36 µM. The GI50 (UO-31 renal) was 5.41 µM, the TGI (UO-31 renal) was 11.7 µM and the GI50 (TK-10 renal) was 5.87 µM. For the same molecule, the TGI (TK-10 renal) was 12.2 µM, the GI50 (SF-268 CNS) was 5.09 µM and the TGI (SF-268 CNS) was 11.5 µM. The GI50 (SR leukemia) was 0.908 µM, the TGI (SR leukemia) was 2.87 µM and the GI50 (SF-539 CNS) was 0.826 µM. It also gave a TGI (SF-539 CNS) of 1.63 µM, a GI50 (MDA-MB-435) of 1.03 µM and a TGI (MDA-MB-435) of 6.12 µM. The GI50 (SNB-19 CNS) was 3.53 µM, the TGI (SNB-19 CNS) was 14.6 µM and the GI50 (NCI-H23 lung) was 5.44 µM. The TGI (NCI-H23 lung) was 13.5 µM, the GI50 (HCC-2998 colon) was 1.65 µM and the TGI (HCC-2998 colon) was 8.26 µM. For the same molecule, the GI50 (HS 578T breast) was 7.76 µM, the TGI (HS 578T breast) was 46.2 µM and the GI50 (HOP-62 NSCLC) was 2.98 µM. It also gave a TGI (HOP-62 NSCLC) of 9.6 µM, a GI50 (A549 NSCLC) of 2.03 µM and a TGI (A549 NSCLC) of 7.89 µM. It also gave a GI50 (UACC-257 melanoma) of 0.727 µM, a TGI (UACC-257 melanoma) of 1.46 µM and a GI50 (HCT-116 colon) of 0.726 µM. It also gave a TGI (HCT-116 colon) of 6.8 µM.
In the case of `COCc1nc(N)nc(N2N=C(C)CC2(C)C)n1`, the TGI (HOP-92 NSCLC) is reported as > 100 µM, the TGI (PC-3 prostate) is reported as > 100 µM and the TGI (HCT-15 colon) is reported as > 100 µM. For the same molecule, the TGI (NCI-H226 lung) was > 100 µM, the TGI (EKVX NSCLC) was > 100 µM and the TGI (IGROV1 ovarian) was > 100 µM. For the same molecule, the TGI (HT29 colon) was > 100 µM, the TGI (A498 renal) was > 100 µM and the TGI (UACC-62 melanoma) was > 100 µM. For the same molecule, the TGI (RPMI-8226 leukemia) was > 100 µM, the TGI (OVCAR-4 ovarian) was > 100 µM and the TGI (SK-OV-3 ovarian) was > 100 µM. The TGI (ACHN renal) was > 100 µM, the TGI (MDA-MB-231 breast) was > 100 µM and the TGI (NCI-H460 lung) was > 100 µM. The TGI (BT-549 breast) was > 100 µM, the TGI (OVCAR-8 ovarian) was > 100 µM and the TGI (MCF7 breast) was > 100 µM. For the same molecule, the TGI (RXF 393 renal) was > 100 µM, the TGI (M14 melanoma) was > 100 µM and the TGI (NCI/ADR-RES ovarian) was > 100 µM. The TGI (OVCAR-3 ovarian) was > 100 µM, the TGI (KM12 colon) was > 100 µM and the TGI (K-562 leukemia) was > 100 µM. For the same molecule, the TGI (SW-620 colon) was > 100 µM, the TGI (NCI-H522 lung) was > 100 µM and the TGI (LOX IMVI melanoma) was > 100 µM. For the same molecule, the TGI (SK-MEL-2 melanoma) was > 100 µM, the TGI (MOLT-4 leukemia) was > 100 µM and the TGI (SNB-75 CNS) was > 100 µM. The TGI (786-0 renal) was > 100 µM, the TGI (DU-145 prostate) was > 100 µM and the TGI (OVCAR-5 ovarian) was > 100 µM. The TGI (SN12C renal) was > 100 µM, the TGI (SK-MEL-28 melanoma) was > 100 µM and the TGI (T-47D breast) was > 100 µM. The TGI (SK-MEL-5 melanoma) was > 100 µM, the TGI (CCRF-CEM leukemia) was > 100 µM and the TGI (CAKI-1 renal) was > 100 µM. The TGI (HL-60(TB) leukemia) was > 100 µM, the TGI (U251 CNS) was > 100 µM and the TGI (COLO 205 colon) was > 100 µM. The TGI (UO-31 renal) was > 100 µM, the TGI (TK-10 renal) was > 100 µM and the TGI (SF-268 CNS) was > 100 µM. For the same molecule, the TGI (SF-295 CNS) was > 100 µM, the TGI (SR leukemia) was > 100 µM and the TGI (SF-539 CNS) was > 100 µM. For the same molecule, the TGI (MDA-MB-435) was > 100 µM, the TGI (SNB-19 CNS) was > 100 µM and the TGI (NCI-H23 lung) was > 100 µM. The TGI (HCC-2998 colon) was > 100 µM, the TGI (HS 578T breast) was > 100 µM and the TGI (HOP-62 NSCLC) was > 100 µM. For the same molecule, the TGI (A549 NSCLC) was > 100 µM, the TGI (UACC-257 melanoma) was > 100 µM and the TGI (HCT-116 colon) was > 100 µM.
